The subject of test [1] is splenic T, B, NK cells and macrophages. In words: Annexin V / 7-AAD flow cytometry of apoptotic splenic cell populations in septic B6 mice. To be noted: for NK cell apoptosis / frequency of apoptotic macrophages: spleen; for frequency of apoptotic macrophages: compared to vehicle-treated mice. The test is classed as in vivo, mouse. From the text: FIG. 7: Analysis of apoptotic cell populations in the spleens of septic B6 mice. Splenocytes from sham and septic B6 mice treated with OCH, KRN7000, or vehicle were stained for T, B, and Natural Killer (NK) cells, and macrophages, and further stained for Annexin V (a marker for early apoptosis) and 7-AAD viability dye. Early and late apoptotic cells (Annexin V+7AAD- and Annexin V+7AAD+ cells respectively) were quantified and compared between treatments. […] (n=3-6 mice per group). *p<0.05, **p<0.01, ***p<0.001 by one-way ANOVA with post-hoc Tukey's multiple comparison test. Data are representative of 3 independent experiments.
FIG. 8: Gating strategy to identify the percentage of apoptotic and necrotic immune cell populations. CD3-APC is shown as an example, but the same strategy was used for macrophages (F480-APC), B cells (B220-APC), and Natural Killer (NK) cells (NK1.1-PE).
Mouse hepatic, splenic, and omental cells (1×106), and human PBMCs (1×106) were washed with cold FACS buffer [PBS+2% fetal bovine serum (FBS)+0.1% sodium azide] and incubated with 5 μg/ml anti-mouse CD16/CD32 mAb (clone 2•4G2, Fc-block, eBiosciences) for 20 min on ice before staining with fluorescent monoclonal antibodies (mAbs) diluted in FACS buffer at 4° C. for 30-40 min. Cells were then washed and flow cytometry was performed using FACSCanto II (BD) with FlowJo software (Treestar).
On the technique in general: A flow cytometer gives signals particle by particle.

Test [2] has as its system B6 mice with intra-abdominal sepsis (IAS). The test can be described thus: Murine intra-abdominal sepsis (IAS) model: survival and murine sepsis score (MSS). The test is classed as in vivo, mouse. To be noted: septic B6 mice; for median survival: 4 μg i.p. single dose, vehicle 24 hours; for murine sepsis score (MSS) after 24 h: compared to vehicle treatment. Here is the method: Stool from the cecum of euthanized naïve B6 mice was expressed through an enterotomy, homogenized, and suspended in 0.9% normal saline (NS) to produce a fecal slurry at a final concentration of 90 mg/mL, for use in experiments on the same day. Mice were injected intraperitoneally with 500 μL fecal slurry or 0.9% normal saline (sham group). The mice were monitored and scored by two independent investigators—one of whom was blinded to the treatment—every 2-3 hours for the first 12 hours, and then every 1-2 hours thereafter. A murine sepsis score (MSS) was assigned to each mouse based on activity, eye movement, response to exogenous stimuli, breathing rate and pattern, and degree of piloerection (Shrum et al. BMC Research Notes 2014, 7:233). The MSS is a reliable and robust scoring system that has excellent inter-rater reliability (intra-class coefficient=0.96), high internal consistency (Cronbach α=0.92), and correlates with levels of certain pro-inflammatory cytokines such as IFN-γ and IL-1β during the experimental timeline (Shrum et al. BMC Research Notes 2014, 7:233). Mice were euthanized at 24 hours, or earlier if they were deemed to be in significant distress based on our scoring model. Euthanasia was carried out as described above. At the time of sacrifice, intra-cardiac blood was drawn into 1.5 mL micro-centrifuge tubes (BD Biosciences) and centrifuged for serum at 1000×g for 30 minutes at 4° C.
Lyophilized OCH was generously provided by the National Institutes of Health (NIH) Tetramer Core Facility (Emory University, Atlanta, Ga.). Each vial containing 0.2 mg of OCH was solubilized in a vehicle solution containing 1 mL of sterile distilled water, 0.5% Tween 20, 56 mg of sucrose and 7.5 mg of histidine, and stored as aliquots at 4° C. until use. KRN7000 (α-GalCer, C26:0/C18:0) was purchased from Funakoshi Co. Ltd. (Tokyo, Japan), solubilized at 1 mg/ml in dimethylsulphoxide (DMSO), and stored as aliquots at −20° C. until use (29); the control vehicle was 2% DMSO in phosphate-buffered saline (PBS). C20:2 was synthesized and used as previously published (30, 31). For in vivo experiments, mice were injected intraperitoneally (i.p.) with a single dose of glycolipid (4 μg/dose) (30) within twenty minutes after induction of IAS.

Another test has as its system Jα18−/− mice with IAS. The test can be described thus: IAS model in iNKT-deficient Jα18−/− mice: murine sepsis score. The class given is in vivo, mouse. The procedure: FIG. 4: Th2-polarizing glycolipid OCH reduces disease severity in IAS. C57BL/6 (B6) mice were concomitantly injected i.p. with fecal slurry (FS; 500 μL of 90 mg/mL solution) to induce intra-abdominal sepsis (IAS), and vehicle, OCH, or KRN7000. […] (c) iNKT-deficient Jα18−/− mice were given FS (500 μL of a 90 mg/mL solution) to induce IAS and concomitantly treated with OCH or vehicle. Murine sepsis scores were similar between vehicle and OCH-treated mice (n=3 per group). […] The percentages of T cells remained unchanged with administration of iNKT-specific glycolipid agonists (n=6, n=4, n=6, and n=3 for vehicle, OCH, Vehicle (KRN7000) and KRN7000 groups respectively). *p<0.05, **p<0.01 by Mann-Whitney U test. (d) Bacterial counts in blood and multiple organs were similar between vehicle-, OCH-, and KRN7000-treated mice with sepsis (n=7-9 per group). Data are representative of at least three independent experiments.
Stool from the cecum of euthanized naïve B6 mice was expressed through an enterotomy, homogenized, and suspended in 0.9% normal saline (NS) to produce a fecal slurry at a final concentration of 90 mg/mL, for use in experiments on the same day. […] The mice were monitored and scored by two independent investigators—one of whom was blinded to the treatment—every 2-3 hours for the first 12 hours, and then every 1-2 hours thereafter. […]

For the next test, the system named is iNKT cells. In words: Flow cytometric detection of iNKT and T cells in spleen and liver of septic B6 mice. The test is classed as in vivo, mouse. To be noted: 24 hours. Here is the method: FIG. 10: Effect of glycolipid agonists on cytokine expression in naïve B6 mice, and on iNKT cells in septic B6 mice. (a) Naïve B6 mice were injected i.p. with 4 μg OCH or KRN7000 or C20:2, and bled at 2, 12, and 24 hours post-injection. Serum samples were assayed for IL-4 and IFN-γ by enzyme-linked immunosorbent assay (ELISA). […] Vehicle-treated mice had cytokine levels below limits of detection. (b) B6 mice were given an intraperitoneal injection of fecal slurry (500 μL of a 90 mg/mL solution) to induce IAS and concomitantly treated with 4 μg of vehicle, OCH, or KRN7000. After 24 hours, mice were sacrificed, and cell suspensions from the liver and spleen were stained for the flow cytometric detection of CD1d tetramer+ TCRβ+iNKT cells.
To obtain hepatic lymphoid mononuclear cells (MNCs), mice were euthanized, and livers were flushed with sterile PBS before they were harvested and pressed through a 40-μm nylon mesh. The resulting homogenate was washed in cold PBS, resuspended in a 33.75% Percoll PLUS solution (GE Healthcare Bio-Sciences) and spun at 700×g for 12 min at room temperature. The pelleted cells were then treated with ACK lysis buffer to remove erythrocytes and washed in cold PBS prior to staining. To obtain omental lymphoid MNCs, the spleen, pancreas, and omentum were removed en-bloc and suspended in ice-cold PBS. The omenta floated above the spleen-pancreas complex and were removed and processed similar to the liver. Spleens were processed with a tissue homogenizer, and the resulting homogenate was washed in cold PBS. The pelleted cells were treated with ACK lysis buffer for 4 minutes to remove erythrocytes, and washed in cold PBS prior to staining.
Mouse hepatic, splenic, and omental cells (1×106), and human PBMCs (1×106) were washed with cold FACS buffer [PBS+2% fetal bovine serum (FBS)+0.1% sodium azide] and incubated with 5 μg/ml anti-mouse CD16/CD32 mAb (clone 2•4G2, Fc-block, eBiosciences) for 20 min on ice before staining with fluorescent monoclonal antibodies (mAbs) diluted in FACS buffer at 4° C. for 30-40 min. […]

Another test has as its system invariant TCR. To be noted: OCH compared to KRN7000; cited from earlier work.
The mark [3] stands for this setting: compared to vehicle- and KRN7000-treated mice.

The structures appear in SMILES notation.

`CCCCCCCCCCCCCCCCCCCCCCCC(=O)N[C@@H](COC1OC(CO)C(O)C(O)C1O)[C@H](O)[C@H](O)CCCCC` (stereo partly shown) [OCH]: in test [1] (setting [3]), the “apoptosis of splenic B cells” value is reported as “significantly reduced” and the “apoptosis of splenic T cells” value is listed as “significantly reduced”. Further, in test [1], the NK cell apoptosis entry was “appeared to be reduced” and the “frequency of apoptotic macrophages” value is “reduced the frequency of apoptosis significantly”. In addition, in test [2], the “response to auditory and touch stimuli” value is “more responsive”; the median survival was determined as 28 h; the “murine sepsis score (MSS) after 24 h” value is reported as “significantly lower”. The compound also showed a survival time in test [2] (4 μg i.p.) greater than 24 h. Further, in test [2] (observed up to 24 hours), the respiratory status entry is on record as “relatively normal respiratory rates”. For the same compound, in test [2] (up to 24 hours), the “course of MSS over time” value is reported as “reached a plateau”. In addition, the “disease severity (MSS) versus vehicle” value in the test with Jα18−/− mice with IAS is “did not observe any differences”. Also, the “detection of iNKT cells versus vehicle” value in the test on iNKT cells was “significantly reduced”. Further, the “binding affinity for the invariant TCR” value in the test with invariant TCR is “lower”.
For `CCCCCCCCCCCCCCCCCCCCCCCCCC(=O)N[C@@H](CO[C@H]1O[C@H](CO)[C@H](O)[C@H](O)[C@H]1O)[C@H](O)[C@H](O)CCCCCCCCCCCCCC` [KRN7000, reference compound], in test [1], the NK cell apoptosis result was “trend toward reduced apoptosis” and the “frequency of apoptotic macrophages” value is “reduced the frequency of apoptosis significantly”. In test [2], the “response to auditory and touch stimuli” value is “non-responsive”; the median survival was 22 h; the “murine sepsis score (MSS) after 24 h” value is on record as “no statistical differences”. The compound also registered a mortality in test [2] (by 24 hours) of 100%. In addition, the “time to respiratory distress (laboured breathing and reduced respiratory rates)” value in test [2] (most mice, post-sepsis) was no more than 15 h. Also, in the test with iNKT cells, the “detection of iNKT cells versus OCH treatment” value is on record as “significantly lower” and the “detection of iNKT cells versus vehicle” value was “significantly reduced”.

The term mortality denotes the percentage killed.

The values above are taken from patent publication US20170027973A1, “MODULARION OF INVARIANT NATURAL KILLER T CELLS IN THE TREATMENT OF SEPSIS” (LONDON HEALTH SCIENCES CENTRE RESEARCH INC., priority 2014, published 2017).
